From patent US20260217691A1, “FOXM1 INHIBITORS AND THEIR USE IN TREATING CANCERS” (THE BOARD OF TRUSTEES OF THE UNIVERSITY OF ILLINOIS, priority 2022, published 2026) come the findings set out here.

In series [1] the test system is KG-1, HL-60, K562, THP-1 cells. The format is cell-based.
The subject of series [2] is canonical FOXM1 target genes. Nature of the series: Real-time PCR of canonical FOXM1 target genes in primary AML mononuclear cells treated ex vivo. The format is cell-based, human. Particulars: primary AML samples (n=5), 5 μM, 24 h.
Series [3] deals with OVCAR-8, ES-2 cells. Briefly: Chemosensitization (caspase-3 cleavage) of ovarian cancer cells to doxorubicin. The format is cell-based, human. How it is done:
(§1) FIG. 16. […] (A) Ovarian cancer (OVCAR-8 and ES-2) cells were treated with indicated concentrations of Doxorubicin (Doxo) alone or in combination with STL001 for 24 hrs. […] (C) colon cancer (HCT-116 and FET) cells were treated with indicated concentrations of 5′FU alone or in combination with STL001 for 24 hrs.

The subject of series [4] is HCT-116 and HCT-FET cells. Briefly: Chemosensitization (caspase-3 cleavage) of colorectal cancer cells to 5′FU. It is filed as cell-based, human. How it is done:
as §1

The subject of series [5] is TAMR cells. It is filed as cell-based. How it is done:
FIG. 17. […] (A) Prostate cancer (22RV1 and LNCaP) cells were treated with indicated concentrations of paclitaxel alone or in combination with STL001 for 24 hrs. (B) Tamoxifen resistance MCF-7 breast cancer cells (TAM-R) were treated with indicated concentrations of Tamoxifen alone or in combination with STL001 for 24 hrs. In all cases, total protein samples were obtained from cells immediately after treatment and analyzed for FOXM1, cleaved caspase-3 levels via immunoblotting, β-actin was used as internal loading control (n=3). (C) Percent (%) dead cells in TAM-R cells treated with indicated concentrations of Tamoxifen alone or in combination with STL001 for 24 hrs. […] (F) HCC 143 cells with stable shRNA-mediated FOXM1 knockdown (KD) were treated with doxorubicin alone or in combination with STL001 for 24 hrs and compared to parental cells under the same treatment conditions. In all cases, total protein samples were obtained from cells immediately after treatment and analyzed for FOXM1, cleaved caspase-3 levels via immunoblotting, β-actin was used as internal loading control (n=3).

In series [6] the test system is FLO-1 cells. Briefly: Chemosensitization of esophageal adenocarcinoma cells. The format is cell-based. The settings on record: 24 hrs.
Excerpt: In all cases, total protein samples were obtained from cells immediately after treatment and analyzed for FOXM1, cleaved caspase-3 levels via immunoblotting, β-actin was used as internal loading control (n=3). […] In all cases, total protein samples were obtained from cells immediately after treatment and analyzed for FOXM1 and cleaved caspase-3 levels via immunoblotting, β-actin was used as internal loading control.
In series [7] the target is T1, FOXM1 (Homo sapiens, UniProt Q08050).
T1 sequence (Q08050 1-763): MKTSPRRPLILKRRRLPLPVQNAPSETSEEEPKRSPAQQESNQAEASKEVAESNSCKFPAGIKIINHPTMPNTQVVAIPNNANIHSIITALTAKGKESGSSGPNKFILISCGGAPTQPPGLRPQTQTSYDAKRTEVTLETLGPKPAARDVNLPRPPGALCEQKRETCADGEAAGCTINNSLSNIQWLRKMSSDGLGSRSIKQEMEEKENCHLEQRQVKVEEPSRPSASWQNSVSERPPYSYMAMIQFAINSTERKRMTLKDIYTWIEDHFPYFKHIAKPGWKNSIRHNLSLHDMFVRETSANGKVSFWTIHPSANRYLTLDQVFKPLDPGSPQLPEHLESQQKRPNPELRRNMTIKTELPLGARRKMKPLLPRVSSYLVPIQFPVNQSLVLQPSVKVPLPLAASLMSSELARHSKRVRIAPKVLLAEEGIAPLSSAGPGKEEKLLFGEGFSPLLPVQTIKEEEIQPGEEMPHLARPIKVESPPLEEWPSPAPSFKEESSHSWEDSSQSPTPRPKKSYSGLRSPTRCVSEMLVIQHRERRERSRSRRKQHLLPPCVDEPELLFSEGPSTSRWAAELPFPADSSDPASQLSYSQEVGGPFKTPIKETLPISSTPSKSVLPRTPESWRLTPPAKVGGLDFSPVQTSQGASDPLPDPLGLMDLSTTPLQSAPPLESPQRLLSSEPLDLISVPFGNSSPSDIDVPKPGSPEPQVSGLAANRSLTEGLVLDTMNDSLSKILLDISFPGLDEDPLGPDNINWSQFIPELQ
Nature of the series: Immunohistochemistry for nuclear FOXM1 in primary AML samples treated ex vivo. The format is cell-based. The arrangement: Total protein samples obtain from treated cells were analyzed for FOXM1 protein levels via immunoblotting; endogenous in cells; host or cells: KG-1, HL-60, K562, THP-1 leukemia cell lines. Particulars: primary AML samples (n=4), 24 h, 43% for DMSO, p=0.06. How it is done:
FIGS. 13A-13H STL001 is a novel FOXM1 inhibitor that sensitizes leukemia cells to standard cytotoxic and bcl2 inhibitor therapies. FIG. 13A AML cell line KG-1 treated with precursor compound STL427944. FIG. 3B AML cell lines KG-1, HL-60, and K562 were treated with increasing concentrations of STL001 for 24 h. Total protein samples obtained from treated cells were analyzed for FOXM1 protein levels using immunoblotting; β-actin was used as the internal loading control. FIG. 13C KG-1, HL-60, and K562 cells were treated with indicated concentrations of venetoclax and STL001 alone or in combination for 24 h. FIG. 13D KG-1, HL-60, and K562 cells were treated with indicated concentrations of cytarabine and STL001 alone or in combination for 24 h. […] Total protein samples obtained from treated cells were analyzed for FOXM1 protein levels via immunoblotting; β-actin was used as an internal loading control. […] Slides were scanned on an Aperio AT2 brightfield scanner and images were analyzed using HALO 2.0 software. […]
In addition, primary AML samples (n=4) were treated ex vivo with STL001 and slides were scanned on an Aperio AT2 brightfield scanner and images were analyzed using HALO 2.0 software. The % of nuclei staining positive for FOXM1 was calculated per cell and averaged per slide to analyze FOXM1 protein expression and localization. […]

Setting [8] is: KG-1, HL-60 and K562 cells, 24 h.

The structures appear in SMILES notation.

`O=C(Oc1cccc(-c2ccn(-c3nc(Nc4ccccc4)nc(N4CCOCC4)n3)n2)c1)c1ccco1` [STL001]: in series [1] (AML cell lines, single agent), the cytotoxic action alone result was “did not exert prominent cytotoxic action on its own”. Also, in series [1] (setting [8]), the “apoptosis (caspase-3 cleavage) in combination with cytarabine” value was “potent induction of apoptosis” and the “apoptosis (caspase-3 cleavage) in combination with venetoclax” value was “potent induction of apoptosis”. Further, in series [1] (KG-1 shFOXM1 cells, venetoclax), the “treatment sensitization effect in cells with stable knockdown of FOXM1” value is listed as “absent”. In addition, in series [2], the “expression of FOXM1 transcriptional targets AURKB and CDC25B” value is “significantly suppressed expression”; the “expression of PLK1 and FOXM1” value is “downregulation”. Further, the “cytotoxic effects as a single agent” value in series [3] is “did not exert significant cytotoxic effects”. For the same molecule, in series [3] (24 hrs), the “apoptotic cell death (caspase-3 cleavage) in combination with doxorubicin” value was “potent induction of apoptotic cell death”. Further, the “sensitivity to cytotoxic effects of 5′FU in combination” value in series [4] is reported as “significantly enhanced the sensitivity of colorectal cancer cells to cytotoxic effects of 5′FU therapy”. The “cytotoxic effects (caspase-3 cleavage, cell viability) in combination with tamoxifen” value in series [5] is on record as “drastically enhances the cytotoxic effects of tamoxifen therapy”. The “sensitization to Cisplatin, 5′FU, Paclitaxel, Irinotecan” value in series [6] was “sensitizes esophageal adenocarcinoma cells (FLO-1) to conventional chemotherapeutic drugs”. Also, in series [7], the “% of nuclei expressing FOXM1 after treatment” value was 29%.
